Read-outs that look alike come from different tables or passages of the source.
Legend:
[1] = tested on: RPE-Neo or RPE-MYC or RPE-MYC expressing an EGFP-Histone 2B fusion protein; test: Phenotypic screening assay (arrest in mitosis or change in DNA content, IN-Cell Analyzer); format: cell-based; conditions: compounds at 20 nM to 20 μM, analysed 24, 48 or 72 hours after initiation of treatment
Experimental: (§1) Screening was conducted as described before (Li et al. 2019). Briefly, RPE-Neo or RPE-MYC or RPE-MYC expressing an EGFP-Histone 2B fusion protein were passaged as batches of 96-well plates, 18-24 hours before exposure to the chemical compounds of the present disclosure at concentrations from 20 nM to 20 μM. At 24, 48 or 72 hours after initiation of treatment, cells were analyzed for either an arrest in mitosis or a change in DNA content by GE 1N-Cell Analyzer 2000. MTT assays of cellular proliferation were performed as previously described (Li et al. 2019).
(§2) As set forth in table 2 below, an values of greater than or equal to 1 nM and less than or equal to 1.0 μM is marked “A”; a value greater than 1.00 μM and less than or equal to 10.0 μM is marked “B”; a value greater than 10.0 μM and less than or equal to 30.0 μM is marked “C”; and a value greater than 30.0 μM and less than 1000 μM is marked “D.”

RPE-Neo or RPE-MYC cells = test: MTT assay of cellular proliferation; format: cell-based; conditions: compounds at 20 nM to 20 μM; read-out: Min. Effective conc. for Proliferative arrest (>50%)
Experimental: Human cancer cell lines were obtained from ATCC and cultured in DMEM (Gibco, Cleveland. TN, USA) supplemented with 5% fetal bovine serum (Gibco), penicillin (100 U/mL)-streptomycin (100 μg/mL) (Gibco, Cat. No. 15140-122), 2 mM L-glutamine (Gibco, 200 mM solution, Cat. No. 25030081), and 1 mM sodium pyruvate (Gibco, 100 mM solution, Cat. No. 11360070) at 37° C. in a humidified incubator that was maintained at 5% CO2.
as §1, §2

[2] = read-out: Min. Effective conc. for Along with Cell Death
[3] = read-out: Min. Effective conc. for Mitotic Arrest (>5%)
[4] = read-out: Min. Effective conc. for Polyploidy (≥5%)

Structure (SMILES) | minimal effective concentration [1, 2] [µM] | minimal effective concentration [1, 3] [µM] | minimal effective concentration [1, 4] [µM] | minimal effective concentration (RPE-Neo or RPE-MYC cells) [µM]
Cc1ccc(CN2C(=O)CC(CO[C@H]3CCOC3)=C(Br)c3ccccc32)cc1F [Compound 44-6, (S)-5-bromo-1-(3-fluoro-4-methylbenzyl)-4-(((tetrahydrofuran-3-yl)oxy)methyl)-1,3-dihydro-2H-benzo[b]azepin-2-one] | 0.001 to 1 | 0.001 to 1 | 0.001 to 1 | 0.001 to 1
Cc1ccc(CN2C(=S)CC(c3nnc(C4CC4)o3)=C(Br)c3ccccc32)cc1F [Compound 24-1, 5-bromo-4-(5-cyclopropyl-1,3,4-oxadiazol-2-yl)-1-(3-fluoro-4-methylbenzyl)-1,3-dihydro-2H-benzo[b]azepine-2-thione] | 0.001 to 1 | 0.001 to 1 | 0.001 to 1 | 0.001 to 1
Cc1noc(C2=C(Br)c3ccccc3N(Cc3ccc(C)c(F)c3)C(=O)C2)n1 [Compound 18-1, 5-bromo-1-(3-fluoro-4-methylbenzyl)-4-(3-methyl-1,2,4-oxadiazol-5-yl)-1,3-dihydro-2H-benzo[b]azepin-2-one] | 0.001 to 1 | 0.001 to 1 | 0.001 to 1 | 0.001 to 1
Cc1ccc(CN2C(=O)CC(c3nnc(C4CC4)o3)=C(Br)c3ccccc32)cc1F [Compound 20-3, 5-bromo-4-(5-cyclopropyl-1,3,4-oxadiazol-2-yl)-1-(3-fluoro-4-methylbenzyl)-1,3-dihydro-2H-benzo[b]azepin-2-one] | 0.001 to 1 | 0.001 to 1 | 0.001 to 1 | 0.001 to 1
Cc1ccc(CN2C(=O)CC(c3cnco3)=C(Br)c3ccc(O)cc32)cc1F [Compound 8-10, 5-bromo-1-(3-fluoro-4-methylbenzyl)-8-hydroxy-4-(oxazol-5-yl)-1,3-dihydro-2H-benzo[b]azepin-2-one] | 0.001 to 1 | 0.001 to 1 | 0.001 to 1 | 0.001 to 1
COc1ccc2c(c1)N(Cc1ccc(C)c(F)c1)C(=O)CC(c1cnco1)=C2Cl [Compound 8-5, 5-chloro-1-(3-fluoro-4-methylbenzyl)-8-methoxy-4-(oxazol-5-yl)-1,3-dihydro-2H-benzo[b]azepin-2-one] | 0.001 to 1 | 0.001 to 1 | 0.001 to 1 | 0.001 to 1
Cc1ccc(CN2C(=O)CC(CN3CCCC3)=C(Br)c3ccccc32)cc1F [Compound 45, 5-bromo-1-(3-fluoro-4-methylbenzyl)-4-(pyrrolidin-1-ylmethyl)-1,3-dihydro-2H-benzo[b]azepin-2-one] | 1 to 10 | 1 to 10 | 1 to 10 | 1 to 10
Cc1ccc(CN2C(=O)CC(c3nnc(C4CC4)o3)=C(Br)c3ccc(OCCCN4CCOCC4)cc32)cc1F [Compound 20-23, 5-bromo-4-(5-cyclopropyl-1,3,4-oxadiazol-2-yl)-1-(3-fluoro-4-methylbenzyl)-8-(3-morpholinopropoxy)-1,3-dihydro-2H-benzo[b]azepin-2-one] | 0.001 to 1 | 0.001 to 1 | 0.001 to 1 | 0.001 to 1
Cc1ccc(CN2C(=O)CC(c3nnc(N)s3)=C(Br)c3ccccc32)cc1F [Compound 15-2, 4-(5-amino-1,3,4-thiadiazol-2-yl)-5-bromo-1-(3-fluoro-4-methylbenzyl)-1,3-dihydro-2H-benzo[b]azepin-2-one] | 0.001 to 1 | 0.001 to 1 | 0.001 to 1 | 0.001 to 1
Cc1cnc(C2=C(Br)c3ccccc3N(Cc3ccc(C)c(F)c3)C(=O)C2)o1 [Compound 23-1, 5-bromo-1-(3-fluoro-4-methylbenzyl)-4-(5-methyloxazol-2-yl)-1,3-dihydro-2H-benzo[b]azepin-2-one] | 0.001 to 1 | 0.001 to 1 | 0.001 to 1 | 0.001 to 1
[2H]C(c1ccc(C)c(F)c1)N1C(=O)CC(c2nnc(C3CC3)o2)=C(Br)c2ccccc21 (centres unmarked) [Compound 20-26, 5-bromo-4-(5-cyclopropyl-1,3,4-oxadiazol-2-yl)-1-((3-fluoro-4-methylphenyl)methyl-d)-1,3-dihydro-2H-benzo[b]azepin-2-one] | 0.001 to 1 | 0.001 to 1 | 0.001 to 1 | 0.001 to 1
Cc1ccc(CN2C(=O)CC(c3nnc(C4CC4)o3)=C(Br)c3cccc(F)c32)cc1F [Compound 20-15, 5-bromo-4-(5-cyclopropyl-1,3,4-oxadiazol-2-yl)-9-fluoro-1-(3-fluoro-4-methylbenzyl)-1,3-dihydro-2H-benzo[b]azepin-2-one] | 0.001 to 1 | 0.001 to 1 | 0.001 to 1 | 0.001 to 1
Cc1nnc(C2=C(Cl)c3ccccc3N(Cc3ccc(C)c(F)c3)C(=O)C2)o1 [Compound 20-1, 5-chloro-1-(3-fluoro-4-methylbenzyl)-4-(5-methyl-1,3,4-oxadiazol-2-yl)-1,3-dihydro-2H-benzo[b]azepin-2-one] | 0.001 to 1 | 0.001 to 1 | 0.001 to 1 | 0.001 to 1
Cc1ccc2c(c1)N(Cc1ccc(C)c(F)c1)C(=O)CC(c1nnc(C)o1)=C2Br [Compound 20-13, 5-bromo-1-(3-fluoro-4-methylbenzyl)-8-methyl-4-(5-methyl-1,3,4-oxadiazol-2-yl)-1,3-dihydro-2H-benzo[b]azepin-2-one] | 0.001 to 1 | 0.001 to 1 | 0.001 to 1 | 0.001 to 1
Cc1ccc(CN2C(=O)CC(c3nnc(N)s3)=C(Cl)c3ccccc32)cc1F [Compound 15-1, 4-(5-amino-1,3,4-thiadiazol-2-yl)-5-chloro-1-(3-fluoro-4-methylbenzyl)-1,3-dihydro-2H-benzo[b]azepin-2-one] | 0.001 to 1 | 0.001 to 1 | 0.001 to 1 | 0.001 to 1
Cc1ccc(CN2C(=O)CC(c3nnc(C4CC4)o3)=C(Br)c3ccc(C#N)cc32)cc1F [Compound 20-11, 5-bromo-4-(5-cyclopropyl-1,3,4-oxadiazol-2-yl)-1-(3-fluoro-4-methylbenzyl)-2-oxo-2,3-dihydro-1H-benzo[b]azepine-8-carbonitrile] | 0.001 to 1 | 0.001 to 1 | 0.001 to 1 | 0.001 to 1
Cc1ccc(CN2C(=O)CC(CO[C@@H]3CCOC3)=C(Br)c3ccccc32)cc1F [Compound 44-5, (R)-5-bromo-1-(3-fluoro-4-methylbenzyl)-4-(((tetrahydrofuran-3-yl)oxy)methyl)-1,3-dihydro-2H-benzo[b]azepin-2-one] | 0.001 to 1 | 0.001 to 1 | 0.001 to 1 | 0.001 to 1
